Measurements from US20240299560A1, “DEOXYCHOLIC ACID-PEPTIDE CONJUGATE HAVING ANTI-OBESITY ACTIVITY AND USE THEREOF” (CAREGEN CO, LTD., priority 2020, published 2024).
Where a SMILES comes first, the peptide text is derived from it. [ ]: non-standard residue; d: D form. The star is where a group is joined. ξ: configuration not given here. Deoxycholoyl = C[C@H](CCC(=O)*)[C@H]1CC[C@H]2[C@@H]3CC[C@@H]4C[C@H](O)CC[C@]4(C)[C@H]3C[C@H](O)[C@]12C; ξF = NC(Cc1ccccc1)C(=O)O; ξL = CC(C)CC(N)C(=O)O; ξK = NCCCCC(N)C(=O)O; ξNva = CCCC(N)C(=O)O

Key:
3T3-L1 cells = test: Oil red O staining of fat accumulation in differentiated adipocytes; assay type: cell-based; settings: 1 μM, 3T3-L1 adipocytes; for lipid accumulation amount: oil red O absorbance 510 nm
Protocol: 3T3-L1 cells as preadipocytes were purchased from the American Type Culture Collection (ATCC) and used in an experiment. 3T3-L1 was a cell line widely used to study the metabolic process of adipocytes, and as the differentiation of the cells was activated, fat accumulation in adipocytes was activated to induce obesity.
(§1) The preadipocytes 3T3-L1 were cultured in a DMEM containing 2% fetal bovine serum (FBS) under conditions of 37° C. and 5% CO2. The preadipocytes 3T3-L1 were dispensed in a 12-well plate at a density of 1×10^5 cells/well, and then further maintained for 2 days at a 100% confluency point. The preadipocytes were cultured for 2 days in a DMEM medium (hereinafter referred to as a ‘differentiation medium’) containing a differentiation ingredient (including 10 μg/ml insulin, 0.1 μM dexamethasone and 0.5 mM IBMX) and 10% FBS to induce the differentiation into adipocytes. After 48 hours of culture, the preadipocytes were cultured for 2 days in 10% FBS DMEM (hereinafter referred to as a ‘culture medium’) containing 1 μg/ml insulin. Thereafter, the culture medium was replaced with a 10% FBS DMEM culture medium every 2 days. During the induction of adipocytes differentiation, depending on a purpose of the experiment, a deoxycholic acid-peptide conjugate was treated or not in each culture medium at a concentration of 1 μM or 10 μM, and the differentiation degree of adipocytes was observed on day 7, when the differentiation was completed.
Specifically, the degree of differentiation of adipocytes induced in Preparation Example 1 was first confirmed under a microscope through oil red O staining, and for the staining degree of adipocytes, the degree of fat accumulated in the cells was calculated by measuring absorbance with a spectrophotometer at a wavelength of 510 nm. A group treated with a β3 adrenergic receptor agonist CL316243 or TNF-α was used as a positive control group.
In order to compare the fat accumulation inhibitory effects in the case of treating the deoxycholic acid-peptide conjugate and the case of treating the deoxycholic acid or the peptide of SEQ ID NO: 1 alone, the degree of differentiation of adipocytes and the degree of lipid accumulation were measured in the same manner as in Experimental Example 1-1. A group treated with TNF-α was used as a positive control group.

white adipose tissue = test: Glycerol release (lipolysis) from cultured adipose tissue; assay type: cell-based, mice; settings: for glycerol release amount: 1 μM, adipose tissue
Protocol: Neutral fat stored in adipose tissue was decomposed into fatty acids and glycerol for energy production or cell signaling. Therefore, the lipolysis effect of neutral fat accumulated in the adipose tissue was confirmed by measuring the release amount of free glycerol.
Specifically, in female mice fed with a high-fat diet (Rodent Diet with 60% Kcal Fat, Research Diets, USA), a fat pad, which was white adipose tissue, was isolated, and each 400 mg of adipose tissue per well was placed in a 12-well plate, and then cultured for 48 hours in a culture medium (DMEM media serum free) to be stabilized. During the culture, the peptide conjugate was treated at concentrations of 1 μM, 10 μM, and 100 μM, and as a positive control group, 20 nM of TNFα was treated and cultured for 48 hours to obtain a supernatant, and the amount of glycerol was measured using a glycerol colorimetric assay kit (Cayman chemical, USA).
In order to compare the lipolysis effects in the case of treating the deoxycholic acid-peptide conjugate and the case of treating the deoxycholic acid or the peptide of SEQ ID NO: 1 alone, the amount of glycerol released from the adipose tissue was measured in the same manner as in Experimental Example 3-1. A group treated with TNF-α was used as a positive control group.

[1] = Solubility in water, visual observation; assay type: physicochemical; settings: 1 mg in 90 μL distilled water
Protocol: Solubilities of the deoxycholic acid-peptide conjugate prepared in Example 2 and deoxycholic acid were visually observed and compared.
Specifically, 90 μL of distilled water was added to an E. tube containing 1 mg each of the deoxycholic acid-peptide conjugate and the deoxycholic acid, and dissolution was confirmed.

adipose tissue = test: H&E staining, size of adipocytes in adipose tissue; assay type: cell-based, BL/6 mice; settings: vs control group
Protocol: (§2) Adipose tissue was collected from the abdomen of 9-week-old BL/6 mice, placed in a 100 mm×15 mm culture dish, and then cultured in a culture medium overnight. The adipose tissue was divided to have the same weight, transferred to a 24-well plate, and then used in the following Experimental Examples.
In order to confirm the lipolysis effect in adipose tissue by the deoxycholic acid-peptide conjugate, H&E staining was performed on the adipose tissue obtained in Preparation Example 2 to confirm the sizes of adipocytes.
Specifically, the adipose tissue was cut, attached to a paraffin slide, and dried at 50° C. The slide attached with the dried adipose tissue was placed in Xylene 1, 2, and 3 for 5 minutes each, and the paraffin was removed. Thereafter, the slide was put into 100% ethanol for 2 minutes, and then sequentially put into 90%, 80%, and 70% ethanol to be re-hydrated. The re-hydrated slide was stained in a hematoxylin solution, washed, and then stained with Eosin Y. Thereafter, the slide was sequentially put into 90%, 80%, and 70% ethanol, and then put into Xylene 3, 2, and 1, and then mounted with a xylene-based mounting medium to prevent air bubbles from entering the tissue, and then dried. Then, the dried slide was observed under an optical microscope.

[2] = tested on: adiponectin and leptin genes; test: RT-PCR of fat metabolism genes in adipocytes; assay type: cell-based; settings: 1 and 10 μM, 1, 3, 6 hours
Protocol: as §1, with “completed. […]” for “completed.”

AMPKa1, HSL, PGC1a genes = test: RT-PCR of lipolysis-related genes in adipocytes; assay type: cell-based; settings: 1 and 10 μM; 24 hours; differentiated adipocytes
Protocol: as §1
(§3) The adipocytes obtained in Preparation Example 1 or the adipose tissue obtained in Preparation Example 2 were treated with the deoxycholic acid-peptide conjugate of the present invention, cultured, and then recovered, and RNA was extracted with Trizol (Thermo Fisher Scientific, USA). From the extracted RNA, complementary DNA to RNA was obtained using TOPScript™ RT DryMIX (enzynomics, Korea) and then polymerase chain reaction (PCR) was performed using TOPsimple™ DryMIX-nTaq (enzynomics, Korea). Thereafter, PCR products were loaded on a 1.5% agarose gel to compare the mRNA expression levels of the growth factors.
Specifically, the differentiated adipocytes obtained in Preparation Example 1 were treated with 1 μM and 10 μM of the deoxycholic acid-peptide conjugate, and then cultured for 24 hours. […]

HSL and PLIN genes = test: RT-PCR of lipolysis genes in adipose tissue; assay type: cell-based, BL/6 mice; settings: 1 and 10 μM, 72 hours
Protocol: as §2, §3
Specifically, the adipose tissue obtained in Preparation Example 2 was treated with 1 μM and 10 μM of the deoxycholic acid-peptide conjugate and 1 μM of CL316243 (Sigma, USA) as a positive control group and cultured for 72 hours. […]

[3] = tested on: ACCα, FAS and PPARγ genes; test: RT-PCR of adipogenesis genes in adipose tissue; assay type: cell-based, BL/6 mice; settings: 1 and 10 μM, 72 hours
Protocol: as §2, §3
(§4) Specifically, the adipose tissue obtained in Preparation Example 2 was treated with 1 μM and 10 μM of the deoxycholic acid-peptide conjugate and 1 μM of CL316,243 (Sigma, USA) as a positive control group and further cultured for 72 hours. After the cells were recovered and the polymerase chain reaction was performed by the method described in Experimental Example 4-1, the expression products were loaded on an agarose gel to confirm the mRNA expression levels of genes related to adipogenesis.

[4] = tested on: UCP1, PRDM and Cidea genes; test: RT-PCR of thermogenesis-related genes of brown adipocytes in adipose tissue; assay type: cell-based, BL/6 mice; settings: 1 and 10 μM, 72 hours
Protocol: as §2, §3, §4

[5] = tested on: IL-15 gene in C2C12 cells; test: RT-PCR of IL-15 gene in muscle cells; assay type: cell-based, mouse; settings: 1 and 10 μM; 6 hours; C2C12 myotubes
Protocol: as §3
Specifically, C2C12 cells, which were mouse myoblasts, were inoculated into a 6-well plate at a density of 2×10^5 cells/well, and then cultured in a DMEM (10% FBS) medium for 3 days. When the cells had grown to about 70 to 80% of the plate, the medium was replaced with a differentiation medium (DMEM, 5% horse serum) and then cultured for 3 days. Thereafter, the medium was replaced with the differentiation medium (DMEM, 2% horse serum) and cultured for 4 days to induce differentiation from myoblasts to myotubes. Then, the medium was replaced with a serum-free medium and cultured for 2 hours, and treated with 1 μM and 10 μM of the deoxycholic acid-peptide conjugate for 6 hours and cultured in an environment of 37° C. and 5% CO2. […]

Row | Compound | lipid accumulation amount (3T3-L1 cells) [%] | glycerol release amount (white adipose tissue) [%] | solubility in water (dissolution, visual) [1] | fat staining in adipocytes (oil red O) (3T3-L1 cells; day 7, positive control CL316243 or TNF-α) | amount of glycerol released (white adipose tissue; 1, 10, 100 μM, 48 hours, adipose tissue of high-fat diet mice, vs control group) | sizes of adipocytes (adipose tissue) | adiponectin mRNA expression [2] | leptin mRNA expression [2] | AMPKa1 mRNA expression (AMPKa1, HSL, PGC1a genes) | HSL mRNA expression (AMPKa1, HSL, PGC1a genes) | PGC1a mRNA expression (AMPKa1, HSL, PGC1a genes) | HSL mRNA expression (HSL and PLIN genes) | PLIN mRNA expression (HSL and PLIN genes) | ACCα mRNA expression [3] | FAS mRNA expression [3] | PPARγ mRNA expression [3] | Cidea mRNA expression [4] | PRDM mRNA expression [4] | UCP1 mRNA expression [4] | IL-15 mRNA expression [5]
1 | Lys Phe Leu Ile Lys (KFLIK) [peptide of SEQ ID NO: 1] | 89 | 106 | – | – | – | – | – | – | – | – | – | – | – | – | – | – | – | – | – | –
2 | C[C@H](CCC(=O)O)[C@H]1CC[C@H]2[C@@H]3CC[C@@H]4C[C@H](O)CC[C@]4(C)[C@H]3C[C@H](O)[C@]12C [deoxycholic acid, 3,12-dihydroxycholan-24-oic acid] | 93 | 116 | hardly dissolved | – | – | – | – | – | – | – | – | – | – | – | – | – | – | – | – | –
3 | CCCC(NC(=O)C(CC(C)C)NC(=O)C(Cc1ccccc1)NC(=O)C(CCCCN)NC(=O)CC[C@@H](C)[C@H]1CC[C@H]2[C@@H]3CC[C@@H]4C[C@H](O)CC[C@]4(C)[C@H]3C[C@H](O)[C@]12C)C(=O)NC(CCCCN)C(=O)O (stereo partly shown) [deoxycholic acid-peptide conjugate] (Deoxycholoyl-[ξK][ξF][ξL][ξNva][ξK]-OH) | 78 | 175 | completely dissolved | reduced at the same level as the positive control group | increased in a concentration-dependent manner | decreased | increased | increased | increased | increased | increased | increased in a concentration dependent manner | increased in a concentration dependent manner | decreased | decreased | decreased | increased | increased | increased | increased
